Measured values: patent publication US11548894B2, “Benzamide or benzamine compounds useful as anticancer agents for the treatment of human cancers” (The Board of Regents of the University of Texas System, priority 2015, dated 2023)

test system: Mut6 cells (TD-NSC); assay: luminescence-based Celltiter-Glo cell viability assay (ATP levels) on Mut6 tumor derived neuronal stem cells; parameters: species or system mouse; details: ATP activity as measure of viability, 96 hours
Description: A mouse colony with 100% incidence of GBM and with conditional knockout of p53, pTEN and NF1 genes (Mut6; glioblastoma) was used to isolate primary neuronal stem cells from GBM tumors cultured in 5% Oxygen and in serum free media with defined growth factors. Primary cells from multiple tumors were pooled for high throughput screening with controls against the University of Texas Southwestern (UTSW) compound file, which encompasses ˜200,000 synthetic compounds that represent a large chemical space from several commercial vendors, including 1200 marketed drugs from the Prestwick Chemical Library®, and 600 compounds that went to pre-clinical tests from the NIH library.
A luminescence-based Celltiter-Glo® assay was performed to measure cell viability, using ATP levels as the readout. In brief, opaque-walled multiwell plates with Mut6 cells in culture medium (25 μl per well, 384-well plates) were prepared. Control wells containing medium without cells were prepared to obtain a value for background luminescence. Test compounds were added to experimental wells, and incubated according to culture protocol. The plate and its contents were incubated at 37° C., 5% […] for 96 hours. An ATP standard curve was generated immediately prior to adding the CellTiter-Glo® Reagent. A volume of CellTiter-Glo® Reagent equal to the volume of cell culture medium present in each well (25 μl of reagent to 25 μl of medium containing cells for a 384-well plate) was added. The contents were mixed for 2 minutes on an orbital shaker to induce cell lysis. The plate was allowed to incubate at room temperature for 10 minutes to stabilize the luminescent signal and luminescence recorded. (e.g. GloMax®, Lumistar, SPECTROstar, PHERAstar FS).
Compound 4C12 served as initial lead compound for analog development and for additional studies. […] See Wager, T T et al, “Moving beyond rules: the development of a central nervous system multi-parameter-optimization (CNS MPO) approach to enable alignment of drug-like properties,” ACS Chem. Neurosci. 1(6): 435-49 (2010). IC50 curves for the analog compounds plotted as ATP activity (y axis, a measure of viability) vs. concentration (nM) (x-axis) are shown in FIG. 9.

Row | SMILES | EC50 (TD-NSC) (nM)
1 | CC(C)(C)OC(=O)N1CCN(CCNC(=O)c2ccc(Sc3ccc(F)cc3)c([N+](=O)[O-])c2)CC1 [DS-2-127, Tert-butyl 4-(2-(4-((4-fluorophenyl)thio)-3-nitrobenzamido)ethyl)piperazine-1-carboxylate] | Not Active

same assay, conditions: Mus musculus, 96 h, ATP activity as measure of viability, 96 hours; read-out: EC50 (TD-NSC)

Row | SMILES | EC50 [nM]
2 | CCN1CCCC1CNC(=O)c1ccc(Sc2ccc(Cl)c(Cl)c2)c([N+](=O)[O-])c1 (stereo not drawn) [DS-1-291, 4-((3,4-dichlorophenyl)thio)-N-((1-ethylpyrrolidin-2-yl)methyl)-3-nitrobenzamide] | 93
3 | CCN1CCCC1CNC(=O)c1ccc(Sc2cccc(Cl)c2)c([N+](=O)[O-])c1 (stereo not drawn) [DS-1-295, 4-((3-chlorophenyl)thio)-N-((1-ethylpyrrolidin-2-yl)methyl)-3-nitrobenzamide] | 70
4 | CCN1CCCC1CNC(=O)c1ccc(Sc2ccc(C)c(C)c2)c([N+](=O)[O-])c1 (stereo not drawn) [DS-1-299, 4-((3,4-dimethylphenyl)thio)-N-((1-ethylpyrrolidin-2-yl)methyl)-3-nitrobenzamide] | 169
5 | CCN1CCCC1CNC(=O)c1ccc(Sc2cccc(C)c2)c([N+](=O)[O-])c1 (stereo not drawn) [DS-1-305, N-((1-ethylpyrrolidin-2-yl)methyl)-3-nitro-4-(m-tolylthio)benzamide] | 86
6 | C#CCN(CC)CCNC(=O)c1ccc(Sc2ccc(F)cc2)c([N+](=O)[O-])c1 [DS-2-035, N-(2-(ethyl(prop-2-yn-1-yl)amino)ethyl)-4-((4-fluorophenyl)thio)-3-nitrobenzamide] | 49
7 | CCN1CCCC1CNC(=O)c1ccc(C(O)c2ccc(F)cc2)c([N+](=O)[O-])c1 (stereo not drawn) [DS-2-051, N-((1-ethylpyrrolidin-2-yl)methyl)-4-((4-fluorophenyl)(hydroxy)methyl)-3-nitrobenzamide] | 564
8 | CCN1CCCC1CNS(=O)(=O)c1ccc(Sc2ccc(F)cc2)c([N+](=O)[O-])c1 (stereo not drawn) [DS-2-055, N-((1-ethylpyrrolidin-2-yl)methyl)-4-((4-fluorophenyl)thio)-3-nitrobenzenesulfonamide] | 155
9 | CCN1CCCC1CNC(=O)c1ccc(C(=O)c2ccc(F)cc2)c([N+](=O)[O-])c1 (stereo not drawn) [DS-2-057, N-((1-ethylpyrrolidin-2-yl)methyl)-4-(4-fluorobenzoyl)-3-nitrobenzamide] | 233
10 | CCN1CCCC1CN(C)C(=O)c1ccc(Sc2ccc(F)cc2)c([N+](=O)[O-])c1 (stereo not drawn) [DS-2-061, N-((1-ethylpyrrolidin-2-yl)methyl)-4-((4-fluorophenyl)thio)-N-methyl-3-nitrobenzamide] | 15
11 | C#CCN(CC)CCNC(=O)c1ccc(Sc2ccc(N=[N+]=[N-])cc2)c([N+](=O)[O-])c1 [DS-2-091, 4-((4-azidophenyl)thio)-N-(2-(ethyl(prop-2-yn-1-yl)amino)ethyl)-3-nitrobenzamide] | > 1000
12 | C#CCOc1ccc(Sc2ccc(C(=O)NCCN(CC)Cc3ccc(C(=O)c4ccccc4)cc3)cc2[N+](=O)[O-])cc1 [DS-2-093, N-(2-((4-benzoylbenzyl)(ethyl)amino)ethyl)-3-nitro-4-((4-(prop-2-yn-1-yloxy)phenyl)thio)benzamide] | > 1000
13 | C#CCN(CC)CCNC(=O)c1ccc(Oc2ccc(C(=O)c3ccccc3)cc2)c([N+](=O)[O-])c1 [DS-2-097, 4-(4-benzoylphenoxy)-N-(2-(ethyl(prop-2-yn-1-yl)amino)ethyl)-3-nitrobenzamide] | > 1000
14 | C#CCN(CC)CCNC(=O)c1ccc(Oc2ccccc2C(=O)c2ccccc2)c([N+](=O)[O-])c1 [DS-2-101, 4-(2-benzoylphenoxy)-N-(2-(ethyl(prop-2-yn-1-yl)amino)ethyl)-3-nitrobenzamide] | > 1000
15 | C#CCN(CC)CCNC(=O)c1ccc(C(=O)c2ccc(F)cc2)c([N+](=O)[O-])c1 [DS-2-107, N-(2-(ethyl(prop-2-yn-1-yl)amino)ethyl)-4-(4-fluorobenzoyl)-3-nitrobenzamide] | > 1000
16 | C#CCOc1ccc(Sc2ccc(C(=O)NCCNCC)cc2[N+](=O)[O-])cc1 [DS-2-111, N-(2-(ethylamino)ethyl)-3-nitro-4-((4-(prop-2-yn-1-yloxy)phenyl)thio)benzamide] | > 1000
17 | CCN1CCCC1CNC(=O)c1ccc([N+](=O)[O-])c(Sc2ccc(F)cc2)c1 (stereo not drawn) [DS-2-115, N-((1-ethylpyrrolidin-2-yl)methyl)-3-((4-fluorophenyl)thio)-4-nitrobenzamide] | 60
18 | CN1CCN(CCNC(=O)c2ccc(Sc3ccc(F)cc3)c([N+](=O)[O-])c2)CC1 [DS-2-121, 4-((4-fluorophenyl)thio)-N-(2-(4-methylpiperazin-1-yl)ethyl)-3-nitrobenzamide] | 287
19 | O=C(NCCN1CCCCC1)c1ccc(Sc2ccc(F)cc2)c([N+](=O)[O-])c1 [DS-2-125, 4-((4-fluorophenyl)thio)-3-nitro-N-(2-(piperidin-1-yl)ethyl)benzamide] | 50

Row | SMILES | EC50 [nM]
20 | O=C(NCCN1CCNCC1)c1ccc(Sc2ccc(F)cc2)c([N+](=O)[O-])c1 [DS-2-129, 4-((4-fluorophenyl)thio)-3-nitro-N-(2-(piperazin-1-yl)ethyl)benzamide] | 141
21 | CCN1CCCC1CNC(=O)c1ccc(Sc2ccc(Cl)c(C(F)(F)F)c2)c([N+](=O)[O-])c1 (stereo not drawn) [DS-2-143, 4-((4-chloro-3-(trifluoromethyl)phenyl)thio)-N-((1-ethylpyrrolidin-2-yl)methyl)-3-nitrobenzamide] | 129
22 | CCN1CCCC1CNC(=O)c1ccc(Sc2cccc(N)c2)c([N+](=O)[O-])c1 (stereo not drawn) [JCH-109, 4-((3-aminophenyl)thio)-N-((1-ethylpyrrolidin-2-yl)methyl)-3-nitrobenzamide] | 301
23 | CCN1CCCC1CNC(=O)c1ccc(Sc2ccccc2Cl)c([N+](=O)[O-])c1 (stereo not drawn) [JCH-111, 4-((2-chlorophenyl)thio)-N-((1-ethylpyrrolidin-2-yl)methyl)-3-nitrobenzamide] | 119
24 | CCN1CCCC1CNC(=O)c1ccc(Sc2ccccc2C)c([N+](=O)[O-])c1 (stereo not drawn) [JCH-114, N-((1-ethylpyrrolidin-2-yl)methyl)-3-nitro-4-(o-tolylthio)benzamide] | 78
25 | CCN1CCCC1CNC(=O)c1ccc(Sc2ccccc2OC)c([N+](=O)[O-])c1 (stereo not drawn) [JCH-117, N-((1-ethylpyrrolidin-2-yl)methyl)-4-((2-methoxyphenyl)thio)-3-nitrobenzamide] | 119
26 | CCN1CCCC1CNC(=O)c1ccc(Sc2ccc(Cl)cc2Cl)c([N+](=O)[O-])c1 (stereo not drawn) [JCH-120, 4-((2,4-dichlorophenyl)thio)-N-((1-ethylpyrrolidin-2-yl)methyl)-3-nitrobenzamide] | 68
27 | CCN1CCCC1CNC(=O)c1ccc(Sc2cc(Cl)cc(Cl)c2)c([N+](=O)[O-])c1 (stereo not drawn) [JCH-124, 4-((3,5-dichlorophenyl)thio)-N-((1-ethylpyrrolidin-2-yl)methyl)-3-nitrobenzamide] | 510
28 | CCN1CCCC1CNC(=O)c1ccc(Sc2ccc3ccccc3n2)c([N+](=O)[O-])c1 (stereo not drawn) [JCH-127, N-((1-ethylpyrrolidin-2-yl)methyl)-3-nitro-4-(quinolin-2-ylthio)benzamide] | 125
29 | CCN1CCCC1CNC(=O)c1ccc(Sc2cccc(O)c2)c([N+](=O)[O-])c1 (stereo not drawn) [JCH-140, N-((1-ethylpyrrolidin-2-yl)methyl)-4-((3-hydroxyphenyl)thio)-3-nitrobenzamide] | 139
30 | CCN1CCCC1CNC(=O)c1ccc(Sc2ccccc2O)c([N+](=O)[O-])c1 (stereo not drawn) [JCH-143, N-((1-ethylpyrrolidin-2-yl)methyl)-4-((2-hydroxyphenyl)thio)-3-nitrobenzamide] | 160
31 | CCN1CCCC1CNC(=O)c1ccc(Sc2cccc(OC)c2)c([N+](=O)[O-])c1 (stereo not drawn) [JCH-146, N-((1-ethylpyrrolidin-2-yl)methyl)-4-((3-methoxyphenyl)thio)-3-nitrobenzamide] | 185
32 | CCN1CCCC1CNC(=O)c1ccc(Sc2ccccc2CO)c([N+](=O)[O-])c1 (stereo not drawn) [JCH-149, N-((1-ethylpyrrolidin-2-yl)methyl)-4-((2-(hydroxymethyl)phenyl)thio)-3-nitrobenzamide] | 154
33 | C#CCN(CC1CCCN1CC)C(=O)c1ccc(Sc2ccc(F)cc2)c([N+](=O)[O-])c1 (stereo not drawn) [ww2-292, N-((1-ethylpyrrolidin-2-yl)methyl)-4-((4-fluorophenyl)thio)-3-nitro-N-(prop-2-yn-1-yl)benzamide] | 531
34 | CCN1CCCC1CNC(=O)c1ccc(OCc2ccc(C3(C(F)(F)F)N=N3)cc2)c([N+](=O)[O-])c1 (stereo not drawn) [ww3-13] | > 1000
35 | CCN1CCCC1CNC(=O)c1ccc(Sc2ccc(F)cc2)c(N=[N+]=[N-])c1 (stereo not drawn) [ww3-57, 3-azido-N-((1-ethylpyrrolidin-2-yl)methyl)-4-((4-fluorophenyl)thio)benzamide] | 63
36 | CCN(CCO)CCNC(=O)c1ccc(Sc2ccc(F)cc2)c([N+](=O)[O-])c1 [ww3-62, N-(2-(ethyl(2-hydroxyethyl)amino)ethyl)-4-((4-fluorophenyl)thio)-3-nitrobenzamide] | 57
